US8101598B2 (priority 2006, dated 2012)
pIC50: −log10 of the molar value. Structures can show the parent of a compound that is named as a salt.

Target: α7-subtype of nicotinic receptors (Rattus norvegicus, UniProt Q05941)
Experiment: biochemical
Type: binding

Sequence of α7-subtype of nicotinic receptors (Q05941 23-502): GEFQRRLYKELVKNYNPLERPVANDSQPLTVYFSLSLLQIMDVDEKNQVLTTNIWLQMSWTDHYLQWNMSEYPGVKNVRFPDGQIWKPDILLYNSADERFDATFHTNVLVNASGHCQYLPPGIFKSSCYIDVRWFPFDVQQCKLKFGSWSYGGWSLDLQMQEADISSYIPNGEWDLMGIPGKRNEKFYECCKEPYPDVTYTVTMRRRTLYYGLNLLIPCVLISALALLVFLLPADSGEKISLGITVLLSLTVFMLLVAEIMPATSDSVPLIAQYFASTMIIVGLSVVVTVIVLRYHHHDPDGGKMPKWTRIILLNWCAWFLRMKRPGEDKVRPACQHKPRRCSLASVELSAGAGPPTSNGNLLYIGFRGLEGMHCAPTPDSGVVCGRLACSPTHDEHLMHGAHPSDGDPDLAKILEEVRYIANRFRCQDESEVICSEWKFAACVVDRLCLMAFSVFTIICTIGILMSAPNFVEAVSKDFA

Structure (SMILES): c1cc2c(cc1-c1nnc(N3CCN4CCC3CC4)o1)OCO2 [Compound A1, 4-(5-Benzo[1,3]-dioxol-5-yl-[1,3,4]oxadiazol-2-yl)-1,4-diaza-bicyclo[3.2.2]nonane Fumaric Acid Salt]
- pIC50: > 8.00
